Measured values published in patent US9187524B2, “Broad spectrum antibiotic arylomycin analogs” (The Scripps Research Institute, priority 2010, dated 2015).
In brackets after ≈: the same amount, converted by molar mass. Like-named read-outs stand apart in the source and are kept apart here.

Key:
[1] = test system: wild type S. epidermidis RP62A; test: microbe, parasite or virus in culture; type: cell-based, Staphylococcus epidermidis; conditions: for MIC: Staphylococcus epidermidis, read-out: MIC, S. epidermidis
[2] = test system: lepB(P29S) S. aureus 8325; test: microbe, parasite or virus in culture; type: cell-based, Staphylococcus aureus; conditions: for MIC: Staphylococcus aureus, read-out: MIC, S. aureus P29S
[3] = test system: lepB(P84L) E. coli MG1655; test: microbe, parasite or virus in culture; type: cell-based, Escherichia coli; conditions: for MIC: Escherichia coli, MG1655, read-out: MIC, E. coli P84L
[4] = test system: lepB(P84L) P. aeruginosa PAO1; test: microbe, parasite or virus in culture; type: cell-based, Pseudomonas aeruginosa; conditions: for MIC: Pseudomonas aeruginosa, PAO1, read-out: MIC, P. aeruginosa P84L
wild type E. coli MG1655 = test: microbe, parasite or virus in culture; type: cell-based, Escherichia coli; conditions: for MIC: Escherichia coli, MG1655, read-out: MIC, E. coli
B. brevis = test: microbe, parasite or virus in culture; type: cell-based, Brevibacillus brevis; conditions: for MIC: Brevibacillus brevis, Table 4, read-out: MIC, B. brevis
R. equi = test: microbe, parasite or virus in culture; type: cell-based; conditions: Rhodococcus (subgen. Prescottella) equi; Table 4
R. opacus = test: microbe, parasite or virus in culture; type: cell-based; conditions: Rhodococcus opacus; Table 4; read-out: MIC, R. opacus
S. agalactiae = test: microbe, parasite or virus in culture; type: cell-based, Streptococcus agalactiae
S. pyogenes = test: microbe, parasite or virus in culture; type: cell-based, Streptococcus pyogenes
S. pneumoniae = test: microbe, parasite or virus in culture; type: cell-based, Streptococcus pneumoniae
C. efficiens = test: microbe, parasite or virus in culture; type: cell-based; conditions: Corynebacterium efficiens, Table 4; read-out: MIC, C. efficiens
C. glutamicum = test: microbe, parasite or virus in culture; type: cell-based, Corynebacterium glutamicum; conditions: Corynebacterium glutamicum; Table 4; read-out: MIC, C. glutamicum
L. lactis = test: microbe, parasite or virus in culture; type: cell-based, Lactococcus lactis; conditions: Lactococcus lactis, Table 4
[5] = test system: spsB(S29P) S. epidermidis RP62A; test: microbe, parasite or virus in culture; type: cell-based, Staphylococcus epidermidis
wild type S. aureus 8325 = test: microbe, parasite or virus in culture; type: cell-based, Staphylococcus aureus
[6] = test system: wild type P. aeruginosa PAO1; test: microbe, parasite or virus in culture; type: cell-based, Pseudomonas aeruginosa
[7] = test system: S. epidermidis ATCC 35984; test: MIC; type: cell-based; conditions: Table 1

Molecule	MIC, Sensitive Se [1]	MIC, Sensitive Sa [2]	MIC, Sensitive Ec [3]	MIC, Sensitive Pa [4]	MIC, Resistant Se [5]	MIC, Resistant Sa (wild type S. aureus 8325)	MIC, Resistant Ec (wild type E. coli MG1655)	MIC, Resistant Pa [6]	fold loss of activity against sensitized S. aureus relative to arylomycin C16 [2]	fold loss of activity against sensitized P. aeruginosa relative to arylomycin C16 [4]	further results
CCCCCCCCCCCCCCCC(=O)N(C)[C@H](CO)C(=O)N[C@H](C)C(=O)NCC(=O)N(C)[C@@H]1C(=O)NC(C)C(=O)N[C@H](C(=O)O)Cc2cc(c(O)c([N+](=O)[O-])c2)-c2cc1ccc2O (stereo partly shown) [Arylomycin B-C16]	–	–	–	–	–	–	–	–	–	–	MIC [1]: 0.13 µg/mL (≈ 0.14 µM); MIC [2]: 8 µg/mL (≈ 8.64 µM); MIC [3]: 2 µg/mL (≈ 2.16 µM); MIC [4]: 4 µg/mL (≈ 4.32 µM); MIC (wild type E. coli MG1655): > 64 µg/mL; MIC (B. brevis): > 64 µg/mL; activity against B. brevis (B. brevis; MHBII broth and nutrient broth): no activity; MIC (R. equi): 32 µg/mL (≈ 34.6 µM); MIC (R. opacus): 4 µg/mL (≈ 4.32 µM); fold more activity against Streptococcus agalactiae than arylomycin C16 (S. agalactiae): greater than 16 fold; MIC (S. agalactiae; Streptococcus agalactiae, Table 4, read-out: MIC, S. agalactiae): 8 µg/mL (≈ 8.64 µM); MIC, S. agalactiae (S. agalactiae; Table 14): 8 µg/mL (≈ 8.64 µM); MIC (S. pyogenes; Streptococcus pyogenes, Table 4, read-out: MIC, S. pyogenes): 4 µg/mL (≈ 4.32 µM); MIC, S. pyogenes (S. pyogenes; Table 14): 4 µg/mL (≈ 4.32 µM); MIC (S. pneumoniae; Streptococcus pneumoniae, Table 4, read-out: MIC, S. pneumoniae): 16 µg/mL (≈ 17.3 µM); MIC, S. pneumoniae (S. pneumoniae; Table 14): 16 µg/mL (≈ 17.3 µM); MIC (C. efficiens): 16 µg/mL (≈ 17.3 µM); MIC (C. glutamicum): 2 µg/mL (≈ 2.16 µM); MIC (L. lactis): 32 µg/mL (≈ 34.6 µM)
CCCCCCCCCCCCCCCC(=O)N[C@H](CO)C(=O)N[C@H](C)C(=O)NCC(=O)N(C)[C@@H]1C(=O)N[C@@H](C)C(=O)N[C@H](C(=O)O)Cc2ccc(O)c(c2)-c2cc1ccc2O [Compound 17]	1 µg/mL (≈ 1.15 µM)	16 µg/mL (≈ 18.5 µM)	4 µg/mL (≈ 4.61 µM)	>64 µg/mL	32 µg/mL (≈ 36.9 µM)	>64 µg/mL	>64 µg/mL	>64 µg/mL	–	–	–
CCCCCCCCCCCCCCCC(=O)N(C)[C@H](CO)C(=O)N(C)[C@H](C)C(=O)NCC(=O)N(C)[C@@H]1C(=O)N[C@@H](C)C(=O)N[C@H](C(=O)O)Cc2ccc(O)c(c2)-c2cc1ccc2O [Compound 18]	>64 µg/mL	>64 µg/mL	>64 µg/mL	>64 µg/mL	>64 µg/mL	>64 µg/mL	>64 µg/mL	>64 µg/mL	–	–	–
CCCCCCCCCCCCCCCC(=O)N1CC(O)CC1C(=O)NC(C)C(=O)NCC(=O)N(C)C1C(=O)NC(C)C(=O)NC(C(=O)O)Cc2ccc(O)c(c2)-c2cc1ccc2O (stereo not shown) [Compound 19]	4 µg/mL (≈ 4.48 µM)	4 µg/mL (≈ 4.48 µM)	>64 µg/mL	>64 µg/mL	8 µg/mL (≈ 8.96 µM)	>64 µg/mL	>64 µg/mL	>64 µg/mL	–	–	–
CCCCCCCCCCCCCCCC(=O)N(C)C(CO)CCC(=O)NC(C)C(=O)NCC(=O)N(C)C1C(=O)NC(C)C(=O)NC(C(=O)O)Cc2ccc(O)c(c2)-c2cc1ccc2O (stereo not shown) [Compound 24]	8 µg/mL (≈ 8.8 µM)	4 µg/mL (≈ 4.4 µM)	>64 µg/mL	>64 µg/mL	16 µg/mL (≈ 17.6 µM)	16 µg/mL (≈ 17.6 µM)	>64 µg/mL	>64 µg/mL	–	–	–
CCCCCCCCCCCCCCCC(=O)N(C)[C@H](CO)C(=O)N[C@H](C)C(=O)NCC(=O)N(C)[C@@H]1C(=O)NCC(=O)N[C@H](C(=O)O)Cc2ccc(O)c(c2)-c2cc1ccc2O [Compound 26]	–	–	–	–	–	–	–	–	> 16 fold	> 16 fold	fold loss of activity against S. epidermidis relative to arylomycin C16 [1]: 32 fold; fold loss of activity against sensitized E. coli relative to arylomycin C16 [3]: 32 fold
CCCCCCCCCCCCCCCC(=O)N(C)C(CO)C(=O)NC(C)C(=O)NCC(=O)N(C)C1C(=O)NC(CCCC)C(=O)NC(C(=O)O)Cc2ccc(O)c(c2)-c2cc1ccc2O (stereo not shown) [Compound 29]	–	–	–	–	–	–	–	–	32 fold	–	–
CCCCCCCCCCCCCCCC(=O)N(C)C(CO)C(=O)NC(C)C(=O)NCC(=O)N(C)C1C(=O)NC(CCCCC)C(=O)NC(C(=O)O)Cc2ccc(O)c(c2)-c2cc1ccc2O (stereo not shown) [Compound 30]	–	–	–	–	–	–	–	–	32 fold	–	–
CCCCCCCCCCCCCCCC(=O)N(C)C(CO)C(=O)NC(C)C(=O)NCC(=O)N(C)C1C(=O)NC(CC(F)(F)F)C(=O)NC(C(=O)O)Cc2ccc(O)c(c2)-c2cc1ccc2O (stereo not shown) [Compound 33]	–	–	–	–	–	–	–	–	at least 16 fold	at least 16 fold	fold loss of activity against S. epidermidis relative to arylomycin C16 [1]: 32 fold; fold loss of activity against sensitized E. coli relative to arylomycin C16 [3]: 8 fold
CCCCCCCCCCCCCCCC(=O)N(C)C(CO)C(=O)NC(C)C(=O)NCC(=O)N(C)C1C(=O)NC(C(C)C)C(=O)NC(C(=O)O)Cc2ccc(O)c(c2)-c2cc1ccc2O (stereo not shown) [Compound 34]	–	–	–	–	–	–	–	–	–	4 fold	–
CCCCCCCCCCCCCCCC(=O)N(C)C(CO)C(=O)NC(C)C(=O)NCC(=O)N(C)C1C(=O)NC(CC(C)C)C(=O)NC(C(=O)O)Cc2ccc(O)c(c2)-c2cc1ccc2O (stereo not shown) [Compound 35]	–	–	–	–	–	–	–	–	–	> 16 fold	–
CCCCCCCCCCCCCCCC(=O)N(C)[C@H](CO)C(=O)N[C@H](C)C(=O)NCC(=O)N(C)[C@@H]1C(=O)N[C@@H](C)C(=O)N[C@H](C(=O)O)Cc2cc(N)c(O)c(c2)-c2cc1ccc2O [Compound 36]	–	–	–	–	–	–	–	–	32 fold	8 fold	MIC [1]: 8 µg/mL (≈ 8.93 µM); fold loss of activity against S. epidermidis relative to arylomycin C16 ([1]; sensitive (wild type) strain): 32 fold; MIC [2]: 64 µg/mL (≈ 71.4 µM); fold loss of activity against sensitized E. coli relative to arylomycin C16 [3]: 8 fold; MIC [3]: 16 µg/mL (≈ 17.9 µM); MIC [4]: 32 µg/mL (≈ 35.7 µM); MIC (wild type E. coli MG1655): > 64 µg/mL; MIC (B. brevis): > 64 µg/mL
Arylomycin A2 [reference compound]	–	–	–	–	–	–	–	–	–	–	MIC, S. aureus 8325 (wild type S. aureus 8325; Table 1): >128 µM; MIC, E. coli MG1655 (wild type E. coli MG1655; Table 1): >128 µM; MIC, S. epidermidis ATCC 35984 [7]: 1 µM
